What was measured:
Rats [1] = test: test (c): metabolic rate (oxygen consumption) in cold-adapted rats; format: in vivo; details: at 1mgkg⁻¹ p.o., closed-circuit oxygen consumption apparatus
Rats [2] = test: test (b): heart rate in rats adapted to a thermoneutral environment (D500 dose and selectivity index)
BAT mitochondria = test: test (a): GDP binding in brown adipose tissue (BAT) mitochondria of cold-adapted rats as a measure of thermogenic activation; format: in vivo; details: Rattus norvegicus, sc, 1 h, sub-cutaneous (s.c), BAT removed one hour after dosing, relative to isoprenaline 1 mg/kg, read-out: ED₅₀ (dose necessary to produce 50% of the isoprenaline effect on GDP binding)

SMILES	increase in metabolic rate (Rats [1]) [ml O₂ min⁻¹Kg ^0.75]	SI (selectivity index, ratio of D₅₀₀ to ED₅₀ in test (a)) (Rats [2]; s.c)	ED50 (BAT mitochondria) [mg/kg]	SI (selectivity index, ratio of D₅₀₀ to ED₅₀ in test (a)) (Rats [2]; route not stated)
COC(=O)COc1ccc(CCNCC(O)COc2ccsc2)cc1 (racemic) [Example 1, Methyl 4-[2-(2-hydroxy-3-(3-thienyloxy)propylamino)ethyl]phenoxyacetate]	5.2	> 100	0.2	–
CC(C)NCC(O)c1ccc(O)c(O)c1 (stereo not shown) [isoprenaline, reference compound]	–	–	–	0.06
